Measurements reported in patent US5358937A, “Glycosyl phospholipid derivatives of nucleosides and their use as medicines” (priority 1989, dated 1994).
Several values for one entry are separate records, joined by “and”; a condition that tells them apart may be missing. Equal entries are not always repeated. Where two headings read alike, the source gives them in different places.

Tests used:
[1] = test system: HIV virus (isolate LAV1-BRU); assay: inhibition of the cytopathogenic effect (CPE) of the HIV virus toward a continuous line of T4 lymphocytes by colorimetric assay with MTT; format: cell-based
[2] = test system: HIV virus; viral reverse transcriptase; assay: inhibition of viral replication by microassay of the enzymatic activity of the viral reverse transcriptase in CEM culture supernatants; format: cell-based; parameters: unit not given here
[3] = test system: HIV virus (isolate LAV1-BRU); assay: selectivity index / protection index (CD50/ED50 ratio); format: cell-based
From the text: Determination of the selectivity index
The higher the difference between the CD50 and the ED50, the more useful will be the product. This difference is quantified by the selectivity index (the CD50/ED50 ratio).

[4] = 31P-NMR study of the interactions between the phosphotriesters and model membranes (transmembrane transport)
[5] = in vitro; settings: human, cem-c113 cells
[6] = HPLC assay of AZT in the brain of mice after oral administration; format: in vivo, Swiss mouse; settings: for Phosphotriester detected by HPLC per gram of brain, individual value / Phosphodiester detected by HPLC per gram of brain, mean (offset figure) / Phosphodiester detected by HPLC per gram of brain, individual value: 25 mg/kg oral, 1 hour, CT 7625 0.64; for Phosphotriester detected by HPLC per gram of brain, individual value: AZT equivalent micromol per mouse: CT 6651, CT 7627 0.68; for concentration at 1 h: mouse, brain, po, read-out: Phosphodiester detected by HPLC per gram of brain, individual value; for concentration at 1 h / Phosphodiester detected by HPLC per gram of brain, individual value: 25 mg/kg; for Phosphodiester detected by HPLC per gram of brain, mean (offset figure): AZT equivalent micromol per mouse: CT 6715 0.94, CT 6651 0.68; for Phosphodiester detected by HPLC per gram of brain, mean (offset figure) / Phosphodiester detected by HPLC per gram of brain, individual value: CT 7624 0.90; for Phosphodiester detected by HPLC per gram of brain, individual value: AZT equivalent micromol per mouse: CT 6715, CT 7626 0.94, CT 6651, CT 7627 0.68, 60 min
Procedure: The assays are conducted on the Swiss mouse.
The compounds are dissolved in distilled water (or suspended in distilled water) before being administered by gavage; the assays are performed by administering each compound to 3 mice. The control consists of 3 mice receiving the equivalent of the vehicle, i.e. the same volume of distilled water as the treated mice. The brains are removed 1 hour after garage, homogenized in an acetonitrile-water (3/1) mixture, centrifuged and the supernatant is taken for the HPLC assay.
In a preliminary trial, favourable experimental conditions for the assays of the different compounds by HPLC are determined.
In the table which follows, each line corresponds to an assay series.

[7] = Human immunodeficiency virus 1, CEM-c113, read-out: ED50 (protective dose 50%), D7 of culture, CEM-C113 cells
[8] = Human immunodeficiency virus 1, CEM-c113, read-out: ED50 (protective dose 50%), D11 of culture, CEM-C113 cells
[9] = Human immunodeficiency virus 1, CEM-c113, read-out: ED50 (protective dose 50%), D19 of culture, CEM-C113 cells
[10] = Human immunodeficiency virus 1, CEM-c113, read-out: ED50 (protective dose 50%), D22 of culture, CEM-C113 cells

SMILES	EC50 [1, 7]	EC50 [1, 8]	EC50 [1, 9]	EC50 [1, 10]	reverse transcriptase activity in culture supernatant ([2]; 0.2 uM, D7)	reverse transcriptase activity in culture supernatant ([2]; 0.2 uM, D11)	reverse transcriptase activity in culture supernatant ([2]; 0.2 uM, D18)	reverse transcriptase activity in culture supernatant ([2]; 0.2 uM, D19)	reverse transcriptase activity in culture supernatant ([2]; 0.2 uM, D22)	reverse transcriptase activity in culture supernatant ([2]; 0.2 uM, D26)	reverse transcriptase activity in culture supernatant ([2]; 1 uM, D7)	reverse transcriptase activity in culture supernatant ([2]; 1 uM, D11)	reverse transcriptase activity in culture supernatant ([2]; 1 uM, D18)	reverse transcriptase activity in culture supernatant ([2]; 1 uM, D19)	reverse transcriptase activity in culture supernatant ([2]; 1 uM, D22)	reverse transcriptase activity in culture supernatant ([2]; 1 uM, D26)	CC50 at 168 h [5]	CC50 at 264 h [5]	CC50 at 456 h [5]	CC50 at 528 h [5]	further results
Cc1cn([C@H]2C[C@H](N=[N+]=[N-])[C@@H](COP(=O)(O)OCCO[C@H]3O[C@H](CO)[C@@H](O)[C@H](O)[C@@H]3O)O2)c(=O)[nH]c1=O [CT 7624, 1ethoxy D-mannosyl 5'-(3'-azido) thymidinyl phosphate]	< 200 nM	< 200 nM	< 200 nM	800 nM	4400	2800	2600	24000	27000	70000	2800	1900	2200	12000	26000	55000	25 µM	> 25 µM	> 25 µM	> 25 µM	reverse transcriptase activity in culture supernatant ([2]; 5 uM, D7): 1670; reverse transcriptase activity in culture supernatant ([2]; 5 uM, D11): 1003; reverse transcriptase activity in culture supernatant ([2]; 5 uM, D18): 852; reverse transcriptase activity in culture supernatant ([2]; 5 uM, D19): 2700; reverse transcriptase activity in culture supernatant ([2]; 5 uM, D22): 5500; reverse transcriptase activity in culture supernatant ([2]; 5 uM, D26): 42000; reverse transcriptase activity in culture supernatant ([2]; 25 uM, D7): 1204; reverse transcriptase activity in culture supernatant ([2]; 25 uM, D11): 372; reverse transcriptase activity in culture supernatant ([2]; 25 uM, D18): 304; reverse transcriptase activity in culture supernatant ([2]; 25 uM, D19): 2100; reverse transcriptase activity in culture supernatant ([2]; 25 uM, D22): 500; reverse transcriptase activity in culture supernatant ([2]; 25 uM, D26): 1700; Phosphodiester detected by HPLC per gram of brain, mean (offset figure) [6]: 2.31 µg; Phosphodiester detected by HPLC per gram of brain, individual value [6]: 0.92 µg and 3.70 µg
Cc1cn([C@H]2CC[C@@H](CO)O2)c(=O)[nH]c1=O [ddT, 2', 3'-dideoxy thymidine, reference compound]	< 200 nM	700 nM	800 nM	> 25000 nM	–	–	–	–	–	–	3000	1500	750	1200	350	600	> 25 µM	< 25 µM	> 25 µM	> 25 µM	reverse transcriptase activity in culture supernatant ([2]; 5 uM, D7): 5000; reverse transcriptase activity in culture supernatant ([2]; 5 uM, D11): 2000; reverse transcriptase activity in culture supernatant ([2]; 5 uM, D18): 1400; reverse transcriptase activity in culture supernatant ([2]; 5 uM, D19): 5000; reverse transcriptase activity in culture supernatant ([2]; 5 uM, D22): 2100; reverse transcriptase activity in culture supernatant ([2]; 5 uM, D26): 5000; reverse transcriptase activity in culture supernatant ([2]; 25 uM, D7): 2500; reverse transcriptase activity in culture supernatant ([2]; 25 uM, D11): 1000; reverse transcriptase activity in culture supernatant ([2]; 25 uM, D18): 800; reverse transcriptase activity in culture supernatant ([2]; 25 uM, D19): 7000; reverse transcriptase activity in culture supernatant ([2]; 25 uM, D22): 4000; reverse transcriptase activity in culture supernatant ([2]; 25 uM, D26): 5000
CCCCCCCCCCCCCCCCOP(=O)(OCCO[C@H]1O[C@H](CO)[C@@H](O)[C@H](O)[C@@H]1O)OC[C@H]1O[C@@H](n2cc(C)c(=O)[nH]c2=O)C[C@@H]1N=[N+]=[N-] (stereo partly drawn) [CT 7625, 1-ethoxy D-mannosyl hexadecyl 5'-(3'-azido) thymidinyl phosphate]	< 200 nM	1000 nM	> 1000 nM	> 1000 nM	3900	2900	2400	25000	52000	61000	6000	6000	5500	47000	48000	64000	20 µM	28 µM	3.4 µM	24 µM	interaction with / location in unilamellar vesicles (in words) [4]: found in the intravesicular aqueous phase; Phosphotriester detected by HPLC per gram of brain, individual value [6]: 0 µg; Phosphodiester detected by HPLC per gram of brain, mean (offset figure) [6]: 2.34 µg; Phosphodiester detected by HPLC per gram of brain, individual value [6]: 1.17 µg and 3.51 µg

Second part, led by results:

EC50 [1, 7]	EC50 [1, 8]	EC50 [1, 9]	EC50 [1, 10]	SMILES	reverse transcriptase activity in culture supernatant ([2]; 0.2 uM, D7)	reverse transcriptase activity in culture supernatant ([2]; 0.2 uM, D11)	reverse transcriptase activity in culture supernatant ([2]; 0.2 uM, D18)	reverse transcriptase activity in culture supernatant ([2]; 0.2 uM, D19)	reverse transcriptase activity in culture supernatant ([2]; 0.2 uM, D22)	reverse transcriptase activity in culture supernatant ([2]; 0.2 uM, D26)	reverse transcriptase activity in culture supernatant ([2]; 1 uM, D7)	reverse transcriptase activity in culture supernatant ([2]; 1 uM, D11)	reverse transcriptase activity in culture supernatant ([2]; 1 uM, D18)	reverse transcriptase activity in culture supernatant ([2]; 1 uM, D19)	reverse transcriptase activity in culture supernatant ([2]; 1 uM, D22)	reverse transcriptase activity in culture supernatant ([2]; 1 uM, D26)	CC50 at 168 h [5]	CC50 at 264 h [5]	CC50 at 456 h [5]	CC50 at 528 h [5]	further results
< 200 nM	300 nM	500 nM	400 nM	CCCCCCCCCCCCCCCCOP(=O)(OC[C@H]1OC(O)[C@@H](O)[C@@H](O)[C@@H]1O)OC[C@H]1O[C@@H](n2cc(C)c(=O)[nH]c2=O)C[C@@H]1N=[N+]=[N-] (stereo partly drawn) [CT 7627, 6-D-mannosyl hexadecyl 5'-(3'-azido)-thymidinyl phosphate]	4000	4700	1700	11000	24000	73000	2000	1100	500	1400	3900	20000	2.6 µM	2.6 µM	2.5 µM	25 µM	PROTECTION INDICES (P.I.), CD50/ED50 [3]: > 13; interaction with / location in unilamellar vesicles (in words) [4]: interacts only with the external lipid layer of the unilamellar vesicles; Phosphotriester detected by HPLC per gram of brain, individual value [6]: 0 µg; concentration at 1 h [6]: 2050 ng/g
< 200 nM	–	–	–	Nc1ccn([C@H]2CC[C@@H](CO)O2)c(=O)n1 [ddC, dideoxycytidine, reference compound]	–	–	–	–	–	–	–	–	–	–	–	–	7 µM	0.4 µM	< 0.2 µM	< 0.2 µM	PROTECTION INDICES (P.I.), CD50/ED50 ([3]; D7): > 35
< 200 nM	200 nM	200 nM	600 nM	Cc1cn([C@H]2C[C@H](N=[N+]=[N-])[C@@H](COP(=O)(O)OC[C@H]3OC(O)[C@@H](O)[C@@H](O)[C@@H]3O)O2)c(=O)[nH]c1=O (stereo partly drawn) [CT 7626, 6-D-mannosyl-5'(3'-azido) thymidinyl phosphate]	3400	3000	1700	12000	27000	85000	2700	1300	1200	5000	15000	50000	> 25 µM	> 25 µM	24 µM	24 µM	reverse transcriptase activity in culture supernatant ([2]; 5 uM, D7): 1500; reverse transcriptase activity in culture supernatant ([2]; 5 uM, D11): 1000; reverse transcriptase activity in culture supernatant ([2]; 5 uM, D18): 1300; reverse transcriptase activity in culture supernatant ([2]; 5 uM, D19): 8000; reverse transcriptase activity in culture supernatant ([2]; 5 uM, D22): 12000; reverse transcriptase activity in culture supernatant ([2]; 5 uM, D26): 100000; reverse transcriptase activity in culture supernatant ([2]; 25 uM, D7): 1100; reverse transcriptase activity in culture supernatant ([2]; 25 uM, D11): 700; reverse transcriptase activity in culture supernatant ([2]; 25 uM, D18): 900; reverse transcriptase activity in culture supernatant ([2]; 25 uM, D19): 2200; reverse transcriptase activity in culture supernatant ([2]; 25 uM, D22): 900; reverse transcriptase activity in culture supernatant ([2]; 25 uM, D26): 900; concentration at 1 h [6]: 2050 ng/g
